Measurements from patent publication US6706664B1, “Benzoxazole compounds, process for the preparation thereof and herbicides” (UBE Industries, Ltd., priority 1999, dated 2004).

What was measured:
Experiment in all cases: Soil treatment test for upland field
Set-up in all cases: key: 0: normal development; 1: Less damaged; 2: Slightly damaged; 3: Moderately damaged; 4: Severely damaged; 5: All killed
Conditions in all cases: 500 g/ha, glass house 25° C., 3 weeks
[1] = tested on: common lambsquartes; type: in vivo, Chenopodium album
Description: (§1) (0: normal development, 1: Less damaged, 2: Slightly damaged, 3: Moderately damaged, 4: Severely damaged, 5: All killed).
(§2) Wagner pots, each having an area of 1/5000 are, were packed with Ube soil (alluvial soil), and then each seed of corn, soybean, cotton, wheat, solgum, sugar beat, Large crabgrass, barnyardgrass, green foxtail, blackgrass, annual bluegrass, common lambsquartes, livid amaranth and velvetleaf were planted and covered with soil.
(§3) Each wettable powder of the desired compounds (I) shown in Table 1 prepared in accordance with Example 2 was diluted with water containing a surfactant (0.05%) and uniformly sprayed on the surface of each soil so that an effective concentration of the compound (I) in each herbicide became 500 g/ha. These plants were controlled in a glass house at an average temperature of 25° C. for 3 weeks, and then herbicidal effects thereof were investigated.
(§4) The herbicidal effects were evaluated according to the evaluation method described in the above (1).

[2] = tested on: annual bluegrass; type: in vivo, Poa annua
Description: as §1, §2, §3, §4

[3] = tested on: livid amaranth; type: in vivo, Amaranthus lividus
Description: as §1, §2, §3, §4

[4] = tested on: green foxtail; type: in vivo, Setaria viridis
Description: as §1, §2, §3, §4

[5] = tested on: Large crabgrass; type: in vivo, Digitaria adscendens
Description: as §1, §2, §3, §4

[6] = tested on: sugar beat; type: in vivo
Description: as §1, §2, §3, §4

[7] = tested on: soybean; type: in vivo
Description: as §1, §2, §3, §4

[8] = tested on: cotton; type: in vivo
Description: as §1, §2, §3, §4

[9] = tested on: wheat; type: in vivo
Description: as §1, §2, §3, §4

[10] = tested on: corn; type: in vivo
Description: as §1, §2, §3, §4

[11] = tested on: solgum; type: in vivo
Description: as §1, §2, §3, §4

[12] = tested on: barnyardgrass; type: in vivo, Echinochloa crusgalli
Description: as §1, §2, §3, §4

[13] = tested on: velvetleaf; type: in vivo, Abutilon theophrasti
Description: as §1, §2, §3, §4

[14] = tested on: blackgrass; type: in vivo, Alopecurus aegualis
Description: as §1, §2, §3, §4

Compound | Effects Common lambsquarters [1] | Effects Annual bluegrass [2] | Effects Livid amaranth [3] | Effects Green foxtail [4] | Effects Large crabgrass [5] | Effects Sugar beat [6] | Effects Soybean [7] | Effects Cotton [8] | Effects Wheat [9] | Effects Corn [10] | Effects Solgum [11] | Effects Barnyardgrass [12] | Effects Velvetleaf [13] | Effects Blackgrass [14]
CCC(Oc1ccc(F)c(C(F)(F)F)c1)c1nc2ccc([N+](=O)[O-])cc2o1 (centres unmarked) [Compound 39] | 3 | 4 | 5 | 4 | 4 | 2 | 0 | 1 | 0 | 0 | 0 |  |  | 
CCC(Oc1cccc(C(F)(F)F)c1)c1nc2ccc(C(F)(F)F)cc2o1 (centres unmarked) [Compound 94] | 1 | 1 | 5 | 4 | 5 | 2 | 0 |  | 0 | 0 | 0 | 3 | 0 | 
CCC(Oc1cccc(C(F)(F)F)c1)c1nc2cc(I)ccc2o1 (centres unmarked) [Compound 172] |  | 3 | 5 | 5 | 5 | 0 | 0 | 0 | 0 | 0 | 0 |  |  | 1
CCC(Oc1ccc(F)c(C(F)(F)F)c1)c1nc2cc(S(C)(=O)=O)ccc2o1 (centres unmarked) [Compound 215] | 4 | 3 | 5 | 4 | 5 | 5 | 0 | 1 | 0 | 0 | 0 |  | 5 | 
CCC(Oc1cccc(C(F)(F)F)c1)c1nc2cc(S(C)(=O)=O)ccc2o1 (centres unmarked) [Compound 216] | 5 | 2 | 5 | 5 | 4 | 5 | 0 | 0 | 0 | 0 | 0 | 3 | 3 | 
CCC(Oc1ccc(F)c(C(F)(F)F)c1)c1nc2cc(Cl)c([N+](=O)[O-])cc2o1 (centres unmarked) [Compound 334, 1-(5-chloro-6-nitrobenzoxazol-2-yl)-1-(4-fluoro-3-(trifluoromethyl)phenoxy)propane] | 2 | 4 | 5 | 5 | 5 | 3 | 0 | 1 | 2 | 0 | 1 | 3 |  | 4
CCC(Oc1ccc(Cl)c(C(F)(F)F)c1)c1nc2cc([N+](=O)[O-])ccc2o1 (centres unmarked) [Compound 432] | 3 | 5 | 5 | 5 | 5 | 5 | 0 | 0 | 0 | 0 | 2 | 4 | 2 | 3
CCC(Oc1cccc(C#N)c1)c1nc2cc(Cl)c(C)cc2o1 (centres unmarked) [Compound 481] | 2 | 2 | 4 | 4 | 5 | 3 | 0 | 0 | 0 | 0 | 0 |  | 3 | 
CCCC(Oc1cccc(C#N)c1)c1nc2cc(Cl)c(C)cc2o1 (centres unmarked) [Compound 484] | 5 | 5 | 5 | 5 | 5 | 5 | 0 | 0 | 0 | 1 | 0 |  | 5 | 
CCC(Oc1ccc(F)c(C(F)(F)F)c1)c1nc2cc(S(C)(=O)=O)c(C)cc2o1 (centres unmarked) [Compound 487] | 4 | 4 | 5 | 3 | 5 | 5 | 0 | 0 | 0 | 0 | 0 | 2 | 3 | 
CCC(Oc1cccc(C#N)c1)c1nc2cc(S(C)(=O)=O)ccc2o1 (centres unmarked) [Compound 507] | 5 |  | 5 | 3 |  | 0 | 0 | 0 | 0 | 0 | 0 |  |  | 
CCCC(Oc1cccc(C#N)c1)c1nc2cc(S(C)(=O)=O)ccc2o1 (centres unmarked) [Compound 508] | 3 | 2 | 5 | 5 | 4 | 4 | 0 | 0 | 0 | 0 | 0 |  | 3 | 
CCC(Oc1ccc(Cl)c(C#N)c1)c1nc2cc(S(C)(=O)=O)ccc2o1 (centres unmarked) [Compound 509] | 5 |  | 5 | 3 | 2 | 5 | 0 | 0 | 0 | 0 | 0 |  | 3 | 
